Assay results published in patent US20220354845A1, “METHODS FOR ENHANCING DNA DAMAGE AND APOPTOSIS OF LEUKEMIC CELLS” (Thomas Jefferson University, priority 2019, published 2022).

How the values were obtained:
[1] = tested on: THP-1 cells; test: DNA damage by γ-H2A.X foci and western blot in THP-1 cells; assay type: cell-based, human; details: for number of γ-H2A.X foci compared to untreated cells: single agent, Bleomycin 5 μM, Doxorubicin 0.1 μM, Etoposide 0.1 μM
Procedure: DNA damage evaluation by analysis of γ-H2A.X foci. […] Lower panels show γ-H2A.X signals only. […] In FIG. 6C, DNA damage was assessed by γ-H2A.X western blot in drug-treated THP-1 cell extracts.
(§1) FIG. 10B is a series of images showing immunofluorescence microscopy of γ-H2A.X foci in untreated or drug-treated (Doxorubicin 0.1 μM, palbociclib 500 nM) THP-1 cells. γ-H2A.X light gray, DAPI dark gray. In FIG. 10C, apoptosis was analyzed by Caspase 3/7 activity by flow cytometry.
The role of chromatin structure in cytotoxic agent-induced DNA damage was also assessed by investigating the formation of γ-H2A.X foci by confocal microscopy.

[2] = tested on: Y641 and A677 mutants of EZH2; details: cited from earlier work
[3] = tested on: primary blasts from AML patient #22324; test: CAA (PLA) between EdU-labeled DNA and ATRIP at sites of DNA damage; assay type: cell-based, human; details: GSK343 12 hours, then 10 μM Bleomycin 1 hr
Procedure: Cells were labeled with EdU for 10 minutes and treated with 10 μM Bleomycin (Bleo) for 1 hr. CAA (PLA, dark) was performed between EdU and ATRIP protein. Chromatin assembly assay: Cells were grown on chamber slides, pulse-labeled with 5 μM EdU and fixed at room temperature with 4% formaldehyde in PBS for 15 min, washed with PBS, and permeabilized with 0.3% Triton for 15 min. Cells were subjected to Click-iT reaction with biotin-azide for 30 min. The PLA reactions (Olink) between the anti-biotin antibody and antibodies to other proteins were performed as described by Olink. Following PLA, cells were immunostained with anti-biotin Alexa Fluor 488 antibody to control the specificity of CAA. The results of CAA experiments shown in FIG. 1A were quantified by counting the number of PLA signals per EdU-labeled nuclei in 50 cells of each of the three independent experiments.

[4] = tested on: H3K27me3 in THP-1 cells; test: H3K27me3 levels in THP-1 cells (CAA, western blot, ChIP-seq); assay type: cell-based, human
Procedure: (§2) FIGS. 4A-4B illustrate the ability of EZH2 inhibitor to affect H3K27me3 binding. […] Cells were labeled with EdU for 15 minutes. CAA was performed with H3K27me3 antibody. Following PLA, cells were immunostained for EdU.
(§3) Box plot of ChIP-seq read density is shown. FIG. 14B is an example showing the COL93A locus.
(§4) Chromatin assembly assay: Cells were grown on chamber slides, pulse-labeled with 5 μM EdU and fixed at room temperature with 4% formaldehyde in PBS for 15 min, washed with PBS, and permeabilized with 0.3% Triton for 15 min. Cells were subjected to Click-iT reaction with biotin-azide for 30 min. The PLA reactions (Olink) between the anti-biotin antibody and antibodies to other proteins were performed as described by Olink. Following PLA, cells were immunostained with anti-biotin Alexa Fluor 488 antibody to control the specificity of CAA. The results of CAA experiments shown in FIG. 1A were quantified by counting the number of PLA signals per EdU-labeled nuclei in 50 cells of each of the three independent experiments. The nature of the results in the rest of the figures alleviated the need to quantify the results of these assays.
(§5) Since DNA-damaging agents (eg., Doxorubicin) preferentially induce double strand breaks (DSBs) in more de-condensed regions of chromatin, some epigenetic inhibitors may render leukemic cells more susceptible to DNA damage. […]

[5] = tested on: H3K27me3 in AML primary cells; test: H3K27me3 on nascent DNA of AML primary cells (CAA, western blot); assay type: cell-based, human; details: GSK126 for 12 hours
Procedure: as §2, §4, §5

[6] = tested on: THP-1 cells; test: Comet assay in drug-treated THP-1 cells; assay type: cell-based, human; details: co-treatment with GSK126 and Doxorubicin
[7] = tested on: THP-1 cells; test: RAD51 foci formation in Doxorubicin-treated THP-1 cells; assay type: cell-based, human; details: GSK126 5 μM, Doxorubicin 0.1 μM; 12, 24, 36, 72 hrs
Text: FIG. 7 illustrates the kinetics of RAD51 foci formation in Doxorubicin-treated THP-1 cells. […] RAD51 foci were detected by immunofluorescence in the pre-washed cultures (12 hrs), and at 24, 36, and 72 hrs post Doxorubicin washing.

[8] = tested on: primary CD34+ AML cells; test: γ-H2A.X foci and comet assay in primary CD34+ AML cells; assay type: cell-based, human; details: co-treated with GSK126 (5 μM) and Doxorubicin (0.3 or 0.1 μM), 24 h
Text: FIGS. 8A-8D illustrate that inhibition of EZH2 enhances DNA damage as assessed by γ-H2A.X foci and comet assay in primary CD34+ AML cells. […] Immunofluorescence microscopy of γ-H2A.X foci (representative cells). γ-H2A.X light gray, DAPI, dark gray. Lower panels show γ-H2A.X signals only. […] Immunofluorescence microscopy of γ-H2A.X foci (representative cells). γ-H2A.X light gray, DAPI, dark gray. Lower panels show γ-H2A.X signals only.

[9] = tested on: THP-1 cells; test: Apoptosis by Caspase-3/7 activity (flow cytometry) in THP-1 cells; assay type: cell-based, human
Procedure: (§6) FIGS. 9A-9B illustrate apoptosis of drug-treated cells. THP-1 (FIG. 9A) and primary CD34+ AML samples (FIG. 9B) were left untreated (CNTR), treated with Doxorubicin alone (0.1 μM), Etoposide alone (0.5 μM) or in combination with the EZH2 inhibitor GSK-126 (0.5 μM) for 48 hours. Apoptosis was analyzed by Caspase-3/7 activity by flow cytometry.
as §1, with “FIGS. 10A-10C illustrate that treatment with the CDK4/CDK6 inhibitor palbociclib suppresses Doxorubicin-induced DNA damage. […] FIG. 10B” for “FIG. 10B”
THP-1 cells were treated with Palbociclib (500 nM) for 24 hours to induce a G1-arrest. […] Anova ***p<0.001; (Right) Apoptosis analyzed by Caspase 3/7 activity by flow cytometry. Mean+/−SEM. Anova; *p<0.1 **p<0.01
To assess whether cell cycle synchronization through pre-conditioning with a CDK4/6 inhibitor prior to treatment, a subsequent study was performed in which THP-1 cells were treated with Palbociclib (500 nM) for 24 hours to induce a G1-arrest. […] (FIG. 15, Right) Apoptosis of treated cells was also analyzed by Caspase 3/7 activity by flow cytometry.

[10] = tested on: primary CD34+ AML samples; test: Apoptosis by Caspase-3/7 activity (flow cytometry) in primary CD34+ AML samples; assay type: cell-based, human; details: CD34+ AML cells, co-treatment GSK-126 (0.5 μM) and Doxorubicin (0.1 μM), 48 hours
Procedure: as §6

[11] = tested on: THP-1 and human CD34+ primary AML cells; test: DNA content analysis and myeloid marker flow cytometry of AML cells; assay type: cell-based; details: GSK126 alone
[12] = tested on: primary ASXL1-mutated AML sample; test: γ-H2A.X foci in primary ASXL1-mutated AML sample; assay type: cell-based, human; details: CD34+ cells with frameshift ASXL1 mutation (G646fs*12); co-treatment with GSK126 (5 nM), 24 hours
Procedure: FIGS. 13A-13B illustrate accumulation of H3K27me3 on nascent DNA of a human primary ASXL1 mutated AML sample. In FIG. 13A, DNA was labeled with EdU for 15 minutes. Following conjugation with biotin, CAA was performed between nascent DNA (biotin) and H3K27me3. PLA (bright gray), Edu (biotin; light gray), DAPI; dark gray). Lower panels show PLA signals only. […] DNA Damage evaluation by analysis of γ-H2A.X foci. […] Immunofluorescence microscopy of γ-H2A.X foci (representative cells). γ-H2A.X light gray, DAPI, dark gray. Lower panels show γ-H2A.X signals only.
Mutations of ASXL1 are more frequent than EZH2 mutations and may cause a decrease in global H3K27me3 level and in the accumulation of this marker on nascent DNA. The H3K27me3 marker was not detected on Edu-labeled, nascent DNA of CD34+ […] cells carrying a frameshift ASXL1 mutation causing a premature termination (G646fs*12) in ˜50% of the cells, favoring a state of ‘open’ chromatin (FIGS. 13A and 13B).

[13] = tested on: THP-1 cells; test: ChIP-seq of γ-H2A.X in THP-1 cells; assay type: cell-based, human; details: THP-1 cells co-treated with GSK126
Text: as §3
Without wishing to be bound by theory, a more relaxed chromatin structure may be more susceptible to DNA damage.

For bleomycin, the “number of γ-H2A.X foci compared to untreated cells” value ([1]; 24 hours) was “markedly increased”.

With `COc1cc([C@@H]2c3cc4c(cc3[C@@H](O[C@@H]3O[C@@H]5CO[C@@H](C)O[C@H]5[C@H](O)[C@H]3O)[C@H]3COC(=O)[C@H]23)OCO4)cc(OC)c1O` [etoposide] the “number of γ-H2A.X foci compared to untreated cells” value ([1]; 24 hours) was “markedly increased”.

For `COc1cccc2c1C(=O)c1c(O)c3c(c(O)c1C2=O)C[C@@](O)(C(=O)CO)C[C@@H]3O[C@H]1C[C@H](N)[C@H](O)[C@H](C)O1` [Doxorubicin], the “number of γ-H2A.X foci compared to untreated cells” value ([1]; 24 hours) was “markedly increased”.

In the case of `Cc1cc(C)c(CNC(=O)c2cc(-c3ccc(CN4CCOCC4)cc3)cc3c2cnn3C2CCCC2)c(=O)[nH]1` [EPZ005687], the “inhibition of the Y641 and A677 mutants of EZH2” value [2] is given as “can also inhibit”.

For `CCOC(=O)CCNc1cc(N2CCc3ccccc3CC2)nc(-c2ccccn2)n1` [GSKJ4], the “enhancement of Doxorubicin-induced DNA damage” value ([1]; THP-1 cells treated with GSKJ4) was “did not enhance”.

With `CCCc1cc(C)[nH]c(=O)c1CNC(=O)c1cc(-c2ccnc(N3CCN(C)CC3)c2)cc2c1cnn2C(C)C` [GSK343] the “recruitment of ATRIP to sites of DNA damage induced by bleomycin” value [3] was “significantly increased recruitment of ATRIP”.

For `CC[C@H](C)n1cc(C)c2c(C(=O)NCc3c(C)cc(C)[nH]c3=O)cc(-c3ccc(N4CCNCC4)nc3)cc21` [GSK126], the “chromatin conformation (H3K27me3 on nascent DNA, CAA)” value ([4]; GSK126 for 12 hours) was “switching the chromatin conformation from “closed” to “open””, the “global levels of H3K27me3 (ChIP-seq)” value ([4]; GSK126 for 24 hours) was “marked decrease” and the “chromatin conformation (H3K27me3 on nascent DNA, CAA)” value [5] was “switching the chromatin conformation from “closed” to “open””. The “number and mean fluorescence intensity of γ-H2A.X foci and γ-H2A.X levels” value ([1]; co-treatment of GSK126 (5 μM) with bleomycin, Doxorubicin or etoposide, 24 hours, vs cytotoxic agent alone) was “further increased”, the “DNA damage by comet assay” value [6] was “Increased DNA damage” and the “number of RAD51 foci (DSBs repair) following Doxorubicin-induced DNA damage” value [7] was “not diminished”. For the same molecule, the “DNA damage (γ-H2A.X foci and comet assay)” value [8] was “Higher levels of DNA damage”, the “apoptosis (Caspase-3/7 activity)” value ([9]; THP-1, co-treatment GSK-126 (0.5 μM) and Doxorubicin (0.1 μM), 48 hours) was “enhanced apoptosis” and the “DNA damage/apoptosis induced by treatment with Ara-C only” value ([9]; THP-1 cells ex vivo, GSK126 with Ara-C) was “did not enhance”. The “apoptosis (Caspase-3/7 activity)” value [10] was “enhanced apoptosis”, the “proliferation of AML cells (DNA content analysis)” value ([11]; 48 hrs, THP-1 and CD34+ primary AML cells) was “no effect” and the “differentiation of AML cells (myeloid marker expression)” value ([11]; 5 days, AML #013 cells) was “no effect”. The “Doxorubicin-induced DNA damage (γ-H2A.X foci)” value [12] was “did not increase” and the “Doxorubicin-induced γ-H2A.X signals (ChIP-seq)” value [13] was “increased”.
